Laboratory results published in patent US20190184069A1, “ANTIMICROBIAL COMPOSITIONS COMPRISING MINOCYCLINE AND DEGRADATION PRODUCTS OF OXIDIZED CELLULOSE” (Omrix Biopharmaceuticals Ltd., priority 2017, published 2019).
Entries after “also recorded” stand apart in the source; their conditions may differ.

Tests used:
S. aureus [1] = conditions: cited from earlier work
S. aureus [2] = test: Secondary stage: bacterial growth (ET50/MIC) of antibiotics with or without extract of degradation products of ORC; type: cell-based, Staphylococcus aureus
From the text: ORC pads which had not been impregnated with antibiotic (referred to herein as “blank ORC pads”), were subjected to extraction and degradation in PBS for three hours at ambient temperature. Extract obtained from these blank ORC pads is referred to herein as “blank extract of degradation products of ORC”.
Blank ORC pads were subjected to extraction and degradation in a solution of antibiotic in PBS. Extracts of degradation products obtained from blank ORC pads in a solution of antibiotic in PBS is referred to herein as “extracts of degradation products of blank ORC in antibiotic”.
Due to the acidity of ORC, which provides some antibiotic effect, the size of the pad used was small i.e. approximately 1×1.5 inch, weighing between 65-75 mg (70 mg on average) in order to prevent the ORC from affecting the final pH of the assay and therefore the growth of the bacteria.
15 ml tubes, each containing 3 ml of an antibiotic solution at a known concentration in sterile PBS, were prepared in duplicate.
Blank ORC pads were subjected to extraction and degradation in the antibiotic solution by immersing the ORC pads in the antibiotic solution for 3-5 hours at ambient temperature on a roller mixer (Stuart, Cat#SRT9D).
Blank extract of degradation products of ORC and extract in antibiotic of degradation products of ORC, prepared as described above, were diluted 10 folds in MHBII in sterile 15 ml capped tubes.
The 5×10^6 CFU/ml stock suspension which had been prepared in advance was transferred into a reservoir and 10 μl of the stock suspension were added into each well of columns 2-11 using a multichannel pipette to obtain a final 5×10^5 CFU/ml suspension.
Columns 3 to 6, rows B to F, were filled with the Blank ORC extracted in antibiotic at decreasing concentrations 1 to 5, diluted 10 folds in MHBII. Each sample tested was placed in 4 well repeats for statistical results.
Columns 7 to 10, rows B to F, were filled with the antibiotic solution (AB) at decreasing concentrations 1 to 5, diluted 10 folds in MHBII. Each sample tested was placed in 4 well repeats for statistical results.
Columns 3 to 6, row G, were filled with the blank extract of degradation products of ORC (PBS-ORC) diluted 10 folds in MHBII.
The plate was incubated at 37° C. with shaking in the ELISA reader and the optical density at 600 nm was read every 20 minutes for a total of 18 hours.
The average and standard deviation for OD readings was calculated for each time point of the wells using Excel. The average values were plotted against time to obtain a graph of the bacterial growth curves in the presence of each of the antibiotics tested.
In some cases, the average OD was plotted for a single endpoint of 800 minutes for the various antibiotic treatments and controls.
The average values were also entered into the GraphPad Prism program (GraphPad Software Inc., CA, USA) in order to calculate the Effective Time 50 (ET50) i.e. the time, in minutes, required for the antibiotic to induce a response halfway between the baseline and maximum, where the maximum is the bacterial growth in MHBII with PBS. This provides a quantifiable measure of the efficacy of the antibiotics tested and enables comparison of the various samples tested.

## CO[C@H]1/C=C/O[C@@]2(C)Oc3c(C)c(O)c4c(O)c(c(/C=N/N5CCN(C)CC5)c(O)c4c3C2=O)NC(=O)/C(C)=C\C=C\[C@H](C)[C@H](O)[C@@H](C)[C@@H](O)[C@@H](C)[C@H](OC(C)=O)[C@@H]1C [Rifampin, rifampin]
S. aureus [1]
  MIC values for S. aureus according to the literature: 4 to 15 ng/mL
S. aureus [2]; antibiotic with versus without ORC degradation products
  Effect of addition of degradation products of ORC on the antibiotic activity: reduction in the antibiotic activity; also recorded: interfere with the antibiotic activity; also recorded: lowering of the antibiotic activity; also recorded: impaired
S. aureus [2]; rifampin 0.015 μg/ml, +ORC degradation products
  ET50: 440.5 min
S. aureus [2]; rifampin 0.015 μg/ml, −ORC
  ET50: 470.7 min
S. aureus [2]; rifampin 0.031 μg/ml, +ORC degradation products
  ET50: 436.3 min
S. aureus [2]; rifampin 0.031 μg/ml, −ORC
  ET50: 448.4 min
S. aureus [2]; rifampin 0.062 μg/ml, +ORC degradation products
  ET50: 432.8 min
S. aureus [2]; rifampin 0.062 μg/ml, +ORC degradation products, listed as rifampin
  ET50: 430 min
S. aureus [2]; rifampin 0.062 μg/ml, −ORC
  ET50: 669.1 min
S. aureus [2]; rifampin 0.125 μg/ml, +ORC degradation products
  ET50: 432.3 min
S. aureus [2]; rifampin 0.125 μg/ml, +ORC degradation products, listed as rifampin
  ET50: around 430 minutes
S. aureus [2]; rifampin 0.125 μg/ml, −ORC
  ET50: no growth at all
S. aureus [2]; rifampin 0.25 μg/ml, +ORC degradation products
  ET50: 430.8 min
S. aureus [2]; rifampin 0.25 μg/ml, +ORC degradation products, listed as rifampin
  ET50: around 430 minutes
S. aureus [2]; rifampin 0.25 μg/ml, −ORC
  ET50: no growth at all

## CN(C)c1ccc(O)c2c1C[C@H]1C[C@H]3[C@H](N(C)C)C(O)=C(C(N)=O)C(=O)[C@@]3(O)C(O)=C1C2=O [Minocycline, minocycline]
S. aureus [2]; minocycline 0.05 μg/ml, +ORC degradation products
  ET50: 901.1 min
S. aureus [2]; minocycline 0.05 μg/ml, +ORC degradation products, listed as minocycline
  ET50: 901 min
S. aureus [2]; minocycline 0.05 μg/ml, −ORC
  ET50: 428.1 min
S. aureus [2]; minocycline 0.1 μg/ml, +ORC degradation products
  ET50: >2000 min
S. aureus [2]; minocycline 0.1 μg/ml, +ORC degradation products, listed as minocycline
  ET50: over 2000 minutes
S. aureus [2]; minocycline 0.1 μg/ml, −ORC
  ET50: 555.1 min
S. aureus [2]; minocycline 0.1 μg/ml, −ORC, listed as minocycline
  ET50: 555 min
S. aureus [2]; minocycline 0.2 μg/ml, +ORC degradation products
  ET50: >2000 min
S. aureus [2]; minocycline 0.2 μg/ml, +ORC degradation products, listed as minocycline
  ET50: over 2000 minutes
S. aureus [2]; minocycline 0.2 μg/ml, −ORC
  ET50: 1771 min
S. aureus [2]; minocycline 0.4 μg/ml, +ORC degradation products
  ET50: >2000 min
S. aureus [2]; minocycline 0.4 μg/ml, −ORC
  ET50: >2000 min
S. aureus [2]; minocycline 0.4 μg/ml, −ORC, listed as minocycline
  ET50: above 2000 minutes
S. aureus [2]; minocycline 0.5 μg/ml, +ORC degradation products
  ET50: >2000 min
S. aureus [2]; minocycline 0.5 μg/ml, −ORC
  ET50: >2000 min
